Test results from patent publication US20070231374A1, “Composition Comprising Ether Lipid” (priority 2003, published 2007).

Experiments:
[1] = stated as known; cited from earlier work
[2] = Phase diagram of GEO/water mixtures (polarising microscope, small angle x-ray diffraction); assay type: physicochemical; settings: mixtures with water, FIG. 1
Experimental: Mixtures of glyceryl-1-monooleate ether (GEO) with water were prepared, shaken and allowed to equilibrate at a known temperature. The phase(s) of the resulting mixture were examined under the polarising microscope and by small angle x-ray diffraction.
At higher water content, both the L2 and the HII phases were stable in the presence of excess water.

Compound | stable phase in excess water [1] | water concentration at which reversed hexagonal (HII) phase forms [2]
CCCCCCCC/C=C\CCCCCCCC(=O)OCC(O)CO (stereo not drawn) [GMO, glyceryl monooleate] | reversed cubic | 
CCCCCCCC/C=C\CCCCCCCCOCC(O)CO (stereo not drawn) [GEO, Glyceryl-1-monooleate ether] | reversed hexagonal | > 15%
